Reference: patent publication US5071749A, “Glycopetide antibiotic PA-45052-B” (Shionogi & Co., Ltd., priority 1987, dated 1991)
Values after ≈ are worked out from the molar mass of the structure shown.

Experiments:
[1] = tested on: Cl. perfringens FC 2208/75; assay type: cell-based, Clostridium perfringens; settings: strain FC 2208/75, origin cow; GAM agar, anaerobic, 37° C., 24 hours
[2] = tested on: Staphylococcus aureus SR3131; test: In vitro antibacterial activity, agar dilution method (MIC); assay type: cell-based; settings: Staphylococcus aureus SR3131, methicillin-resistant, 37° C., 18-20 hrs
[3] = tested on: Streptococcus faecalis SR 1004; test: as above; settings: horse serum 0.5%, 37° C., 18-20 hrs
[4] = tested on: Cl. perfringens 3C-01; assay type: cell-based, Clostridium perfringens; settings: strain 3C-01, origin chicken; GAM agar, anaerobic, 37° C., 24 hours
[5] = tested on: Cl. perfringens 02441; assay type: cell-based, Clostridium perfringens; settings: strain 02441, origin chicken; GAM agar, anaerobic, 37° C., 24 hours
[6] = tested on: Staphylococcus aureus ATCC 25923; test: In vitro antibacterial activity, agar dilution method (MIC); settings: 37° C., 18-20 hrs
[7] = tested on: Cl. perfringens NCTC-8798; assay type: cell-based, Clostridium perfringens; settings: strain NCTC-8798, origin cow; GAM agar, anaerobic, 37° C., 24 hours
[8] = tested on: Staphylococcus aureus PDA 209P JC-1; test: In vitro antibacterial activity, agar dilution method (MIC); settings: 37° C., 18-20 hrs
[9] = tested on: broiler chicks; test: Growth-stimulation test on chicks; assay type: in vivo, broiler chicks (arbor acre); settings: 20 ppm in feed for 14 days
Text: The growth-stimulating activities of PA-45052-A, PA-45052-B and PA-45052-E on broiler chicks (arbor acre, 8 days old) were investigated by using the known antibiotic thiopeptin as a referential agent. Chicks were fed with a feed mush (crude protein (CP) concentration 18%, each agent's concentration 20 ppm, not supplemented with other antibiotics) for 14 days in the battery brooders. The method of this experiment was as follows. After chicks were fed by floor pen with a feed (CP concentration 23%) from 0 to 8 days, they were divided into 5 groups (24 chicks a group, 12 male and 12 female) in such a way that the average weights of the groups are equal. To each group was administered PA-45052-A (20 ppm), PA-45052-B (20 ppm), PA-45052-E (20 ppm), thiopeptin (20 ppm) or only a feed (CP 18%) for 14 days. Each group was fed in cages (435×600×410 mm, each cage has 6-7 chicks) at 26°±2° C. for 14 days (up to 22 days old). Effectiveness was estimated from the increase of weight and the feed efficiency.

[10] = tested on: Cl. perfringens 6B-10; assay type: cell-based, Clostridium perfringens; settings: strain 6B-10, origin cow; GAM agar, anaerobic, 37° C., 24 hours
[11] = tested on: Streptococcus pyogenes C-203; test: In vitro antibacterial activity, agar dilution method (MIC); settings: horse serum 0.5%, 37° C., 18-20 hrs
[12] = tested on: Cl. perfringens S-79; assay type: cell-based, Clostridium perfringens; settings: strain S-79, origin cow; GAM agar, anaerobic, 37° C., 24 hours
[13] = tested on: Streptococcus pneumoniae Type I; test: In vitro antibacterial activity, agar dilution method (MIC); settings: horse serum 0.5%, 37° C., 18-20 hrs
[14] = tested on: Streptococcus epidermidis ATCC 14490; test: as above; settings: 37° C., 18-20 hrs
[15] = tested on: Streptococcus pyogenes C-203; test: Antibacterial activity in vivo, mouse intraperitoneal infection (ED50); settings: Slc-ICR female mice, i.p. inoculation of Streptococcus pyogenes C-203; s.c. dosing 1 and 5 hours later; survival on day 7
Experimental: (§1) Test method: The test organism is intraperitoneally inoculated to Slc-ICR female mice (8 mice per group), and PA-45052-A, -B or -C (two-fold dilution) is subcutaneously administered twice one hour later and 5 hours later.
(§2) Results: The 50% effective dose (ED50) is calculated from the survival rate on day 7.

[16] = tested on: Staphylococcus aureus SR 2030; test: as above; settings: Slc-ICR female mice, i.p. inoculation of S. aureus SR 2030 (methicillin-resistant); s.c. dosing 1 and 5 hours later; survival on day 7
Experimental: as §1, §2

[17] = tested on: Streptococcus pneumoniae Type I; test: as above; settings: Slc-ICR female mice, i.p. inoculation of Streptococcus pneumoniae Type I; s.c. dosing 1 and 5 hours later; survival on day 7
Experimental: as §1, §2

[18] = tested on: Staphylococcus aureus SR 3637; test: as above; settings: Slc-ICR female mice, i.p. inoculation of S. aureus SR 3637 (methicillin-resistant); s.c. dosing 1 and 5 hours later; survival on day 7
Experimental: as §1, §2

[19] = tested on: Cl. perfringens NCTC-10239; assay type: cell-based, Clostridium perfringens; settings: strain NCTC-10239, origin cow; GAM agar, anaerobic, 37° C., 24 hours
[20] = tested on: Streptococcus agalactiae SR 1247; test: In vitro antibacterial activity, agar dilution method (MIC); settings: horse serum 0.5%, 37° C., 18-20 hrs
[21] = tested on: Cl. perfringens SP07; assay type: cell-based, Clostridium perfringens; settings: strain SP07, origin chicken; GAM agar, anaerobic, 37° C., 24 hours
[22] = tested on: Cl. perfringens 9C-02; assay type: cell-based, Clostridium perfringens; settings: strain 9C-02, origin chicken; GAM agar, anaerobic, 37° C., 24 hours
[23] = tested on: Staphylococcus aureus SR1626; test: In vitro antibacterial activity, agar dilution method (MIC); assay type: cell-based; settings: Staphylococcus aureus SR1626, methicillin-resistant, 37° C., 18-20 hrs
[24] = tested on: Cl. perfringens NCTC-8239; assay type: cell-based, Clostridium perfringens; settings: strain NCTC-8239, origin cow; GAM agar, anaerobic, 37° C., 24 hours
[25] = tested on: Cl. perfringens CW-1970; assay type: cell-based, Clostridium perfringens; settings: strain CW-1970, origin cow; GAM agar, anaerobic, 37° C., 24 hours
[26] = tested on: Staphylococcus aureus SMITH; test: In vitro antibacterial activity, agar dilution method (MIC); settings: 37° C., 18-20 hrs
[27] = tested on: Staphylococcus aureus SR14; test: as above; assay type: cell-based; settings: Staphylococcus aureus SR14, penicillin-resistant, 37° C., 18-20 hrs
[28] = tested on: mouse; test: LD50 on injection to mouse; assay type: in vivo
Text: The growth-stimulating agent of this invention not only promotes growth of animals but also improves feed efficiency. Naturally, it is effective against infections by bacteria.

[29] = tested on: Staphylococcus aureus SR3626; test: In vitro antibacterial activity, agar dilution method (MIC); assay type: cell-based; settings: Staphylococcus aureus SR3626, methicillin-resistant, 37° C., 18-20 hrs

Compound: CNC(CC(C)C)C(=O)NC1C(=O)NC(CC(N)=O)C(=O)NC2C(=O)NC3C(=O)NC(C(=O)NC(C(=O)O)c4cc(O)cc(O)c4-c4cc3ccc4O)C(OC3CC(C)(N)C(O)C(C)O3)c3ccc(c(Cl)c3)Oc3cc2cc(c3OC2OC(CO)C(O)C(O)C2O)Oc2ccc(cc2Cl)C1O (centres unmarked) [PA-45052-B]
- MIC [1]: 0.39 µg/mL (≈ 0.269 µM)
- MIC [2]: 0.39 µg/mL (≈ 0.269 µM)
- MIC [3]: 0.78 µg/mL (≈ 0.538 µM)
- MIC [4]: 0.78 µg/mL (≈ 0.538 µM)
- MIC [5]: 0.39 µg/mL (≈ 0.269 µM)
- MIC [6]: 0.39 µg/mL (≈ 0.269 µM)
- MIC [7]: 0.39 µg/mL (≈ 0.269 µM)
- MIC [8]: 0.39 µg/mL (≈ 0.269 µM)
- FCR: feed efficiency (B/A) ([9]; broiler chicks): 1.60
- Increase of weight A (M = g) ± SD (average increase of weight) ([9]; broiler chicks 8 to 22 days old, 24 chicks): 438.5 ± 51.6 g
- FCR (%), index when control group is 100 ([9]; broiler chicks, control = 100): 93.6%
- Increase of weight (%), index when control group is 100 ([9]; broiler chicks, control = 100): 105.4%
- MIC [10]: 0.39 µg/mL (≈ 0.269 µM)
- MIC [11]: 0.2 µg/mL (≈ 0.138 µM)
- MIC [12]: 0.39 µg/mL (≈ 0.269 µM)
- MIC [13]: 0.2 µg/mL (≈ 0.138 µM)
- MIC [14]: 1.56 µg/mL (≈ 1.08 µM)
- ED50 (50% effective dose) [15]: 0.44 mg/kg/dose
- ED50 (50% effective dose) [16]: 1.45 mg/kg/dose
- ED50 (50% effective dose) [17]: 0.38 mg/kg/dose
- ED50 (50% effective dose) [18]: 2.84 mg/kg/dose
- MIC [19]: 0.2 µg/mL (≈ 0.138 µM)
- MIC [20]: 0.39 µg/mL (≈ 0.269 µM)
- MIC [21]: 0.2 µg/mL (≈ 0.138 µM)
- MIC [22]: 0.39 µg/mL (≈ 0.269 µM)
- MIC [23]: 0.78 µg/mL (≈ 0.538 µM)
- MIC [24]: 0.2 µg/mL (≈ 0.138 µM)
- MIC [25]: 0.39 µg/mL (≈ 0.269 µM)
- MIC [26]: 0.78 µg/mL (≈ 0.538 µM)
- MIC [27]: 0.78 µg/mL (≈ 0.538 µM)
- LD50 [28]: 1439 mg/kg
- MIC [29]: 0.39 µg/mL (≈ 0.269 µM)
